Tests used:
Format in all cases: cell-based
[1] = biological target: T1, Eukaryotic peptide chain release factor GTP-binding subunit ERF3A (Homo sapiens, UniProt P15170); test: Induction of ePL tagged GSPT1 degradation in human DF15 cells assessed as remaining protein level incubated for 60 mins by luminescence reader assay relative to control
[2] = biological target: Casein kinase I isoform alpha (Homo sapiens) (UniProt P48729); test: Induction of ePL tagged CK1alpha degradation in human MDS-L cells assessed as remaining protein level incubated for 60 mins by luminescence reader assay relative to control
[3] = biological target: T1, Eukaryotic peptide chain release factor GTP-binding subunit ERF3A; test: Induction of ePL tagged GSPT1 degradation in human DF15 cells incubated for 60 mins by luminescence reader assay; details: read-out: EC50 (the source's name)
[4] = biological target: Zinc finger protein Aiolos (Homo sapiens) (UniProt Q9UKT9); test: Induction of N-terminal HiBiT tag knocked in IKZF3 degradation in human DF15 cells assessed as remaining protein level incubated for 60 mins by Nano-Glo HiBiT lytic reagent based assay relative to control
Sequence of Zinc finger protein Aiolos (Homo sapiens) (Q9UKT9 whole entry): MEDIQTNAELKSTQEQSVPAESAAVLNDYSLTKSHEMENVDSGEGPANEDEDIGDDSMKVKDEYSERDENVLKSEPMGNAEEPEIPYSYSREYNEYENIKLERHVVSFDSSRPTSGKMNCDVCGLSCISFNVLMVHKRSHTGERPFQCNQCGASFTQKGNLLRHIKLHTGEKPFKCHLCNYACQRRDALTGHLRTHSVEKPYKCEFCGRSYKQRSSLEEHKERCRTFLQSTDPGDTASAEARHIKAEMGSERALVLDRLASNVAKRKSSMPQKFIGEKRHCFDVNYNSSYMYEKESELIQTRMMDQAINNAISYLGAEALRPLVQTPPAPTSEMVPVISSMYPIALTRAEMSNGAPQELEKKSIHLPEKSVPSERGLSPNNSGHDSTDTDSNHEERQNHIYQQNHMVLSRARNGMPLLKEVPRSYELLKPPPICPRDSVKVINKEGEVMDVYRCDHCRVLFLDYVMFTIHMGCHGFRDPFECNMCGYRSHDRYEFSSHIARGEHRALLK

T1 sequence (P15170 whole entry, canonical isoform): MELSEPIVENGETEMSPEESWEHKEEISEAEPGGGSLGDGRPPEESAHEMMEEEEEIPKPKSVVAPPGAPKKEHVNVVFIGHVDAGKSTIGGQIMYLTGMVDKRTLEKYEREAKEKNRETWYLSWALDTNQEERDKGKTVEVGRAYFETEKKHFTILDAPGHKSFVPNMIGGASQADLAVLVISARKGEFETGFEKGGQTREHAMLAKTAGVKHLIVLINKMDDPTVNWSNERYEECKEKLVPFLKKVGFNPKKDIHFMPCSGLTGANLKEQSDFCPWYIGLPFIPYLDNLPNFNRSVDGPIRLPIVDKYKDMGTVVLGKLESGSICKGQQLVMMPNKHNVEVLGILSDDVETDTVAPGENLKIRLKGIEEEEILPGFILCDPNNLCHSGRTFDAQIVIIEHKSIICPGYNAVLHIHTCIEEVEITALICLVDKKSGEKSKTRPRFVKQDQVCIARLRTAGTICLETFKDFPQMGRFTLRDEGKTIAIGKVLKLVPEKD
Sequence of Casein kinase I isoform alpha (Homo sapiens) (P48729 2-337 limits assumed): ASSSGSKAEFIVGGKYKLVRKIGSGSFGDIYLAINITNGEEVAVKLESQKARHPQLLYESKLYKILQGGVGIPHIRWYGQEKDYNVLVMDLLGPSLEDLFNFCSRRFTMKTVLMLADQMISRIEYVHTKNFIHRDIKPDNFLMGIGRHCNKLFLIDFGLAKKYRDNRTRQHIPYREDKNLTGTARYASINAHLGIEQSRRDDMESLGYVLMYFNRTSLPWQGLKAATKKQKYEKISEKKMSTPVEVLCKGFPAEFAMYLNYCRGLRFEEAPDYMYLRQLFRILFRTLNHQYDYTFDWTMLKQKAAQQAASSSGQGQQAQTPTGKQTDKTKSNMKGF

| SMILES | Activity [1] [%] | Activity [4] [%] | also measured |
| --- | --- | --- | --- |
| O=C1CCC(N2C(=O)c3ccc(C4=C[C@]4(C(=O)OCC(Cl)(Cl)Cl)c4ccc(Br)cc4)cc3C2=O)C(=O)N1 (some centres undefined) | 2.3 | – | – |
| O=C1CCC(N2Cc3cc([C@@H]4C[C@]4(C(=O)OCC(Cl)(Cl)Cl)c4ccc(Br)cc4)ccc3C2=O)C(=O)N1 (some centres undefined) | – | – | Activity [2]: 92% |
| O=C1CCC(N2C(=O)c3ccc(C4=C[C@@]4(C(=O)OCC(Cl)(Cl)Cl)c4ccc(Br)cc4)cc3C2=O)C(=O)N1 (some centres undefined) | 1.4 | – | DC50 [3]: 1400 nM |
| O=C1CCC(N2C(=O)c3cccc([C@H]4C[C@@]4(C(=O)OCC(Cl)(Cl)Cl)c4ccc(Br)cc4)c3C2=O)C(=O)N1 (some centres undefined) | – | 99 | – |
| O=C1CCC(N2Cc3c(cccc3C3=C[C@]3(C(=O)OCC(Cl)(Cl)Cl)c3ccc(Br)cc3)C2=O)C(=O)N1 (some centres undefined) | – | 9.2 | – |
| O=C1CCC(N2C(=O)c3ccc([C@@H]4C[C@]4(C(=O)OCC(Cl)(Cl)Cl)c4ccc(Br)cc4)cc3C2=O)C(=O)N1 (some centres undefined) | 100 | – | – |
| O=C1CCC(N2Cc3c(cccc3[C@@H]3C[C@]3(C(=O)OCC(Cl)(Cl)Cl)c3ccc(Br)cc3)C2=O)C(=O)N1 (some centres undefined) | – | 79 | – |
| O=C1CCC(N2Cc3cc([C@H]4C[C@@]4(C(=O)OCC(Cl)(Cl)Cl)c4ccc(Br)cc4)ccc3C2=O)C(=O)N1 (some centres undefined) | – | – | Activity [2]: 44% |

— ChEMBL document CHEMBL5614445, “Asymmetric Dirhodium-Catalyzed Modification of Immunomodulatory Imide Drugs and Their Biological Assessment” (ACS Med Chem Lett, 2024)
